How the values were obtained:
[1] = tested on: Arthrobacter oxydans ATCC 8010; assay: minimum inhibitory concentration; type: cell-based; settings: Gram + Bacteria
[2] = tested on: Clostridium perfringens ATCC 77454; type: cell-based; settings: Gram + Bacteria
[3] = tested on: Staphylococcus aureus ATCC 6538; assay: minimum inhibitory concentration; type: cell-based; settings: Gram + Bacteria
[4] = tested on: Micrococcus luteus ATCC 9631; assay: minimum inhibitory concentration; type: cell-based; settings: Gram + Bacteria
[5] = tested on: Alcaligenes faecalis ATCC 8750; assay: minimum inhibitory concentration; type: cell-based; settings: Gram − Bacteria
[6] = tested on: Bordetella bronchiseptica ATCC 4617; assay: minimum inhibitory concentration; type: cell-based; settings: Gram − Bacteria
[7] = tested on: Citrobacter freundii ATCC 22636; assay: minimum inhibitory concentration; type: cell-based; settings: Gram − Bacteria
[8] = tested on: Enterobacter aerogenes CECT 689; assay: minimum inhibitory concentration; type: cell-based; settings: Gram − Bacteria
[9] = tested on: Escherichia coli ATCC 8739; assay: minimum inhibitory concentration; type: cell-based; settings: Gram − Bacteria
Escherichia coli 0157H7 = assay: minimum inhibitory concentration; type: cell-based; settings: Gram − Bacteria
[10] = tested on: Pseudomonas aeruginosa ATCC 9027; assay: minimum inhibitory concentration; type: cell-based; settings: Gram − Bacteria
[11] = tested on: Gliocadium virens ATCC 4645; assay: minimum inhibitory concentration; type: cell-based; settings: Fungi
[12] = tested on: Penicillium chrysogenum CECT 2802; assay: minimum inhibitory concentration; type: cell-based; settings: Fungi
[13] = tested on: Penicillium funiculosum CECT 2914; assay: minimum inhibitory concentration; type: cell-based; settings: Fungi
[14] = tested on: Rhodotorula rubra CECT 1158; assay: minimum inhibitory concentration; type: cell-based; settings: Yeast
[15] = tested on: Saccharomyces cerevisiae ATCC 9763; assay: minimum inhibitory concentration; type: cell-based; settings: Yeast
Yeast = assay: preservative efficacy (Antimicrobial Effectiveness Testing USP 24th Edition) in cosmetic formulations; type: cell-based, Candida albicans ATCC 10231; settings: 0.20 g of LAE
Description: (§1) This assay consists of the contamination of the protecting formulations with an inoculum mixture of 10^8 cfu/mL concentration, for each of the microorganisms, and the determination of the number of viable cells in the time. This inoculum mixture is composed of the following microorganisms:
(§2) The cosmetic composition to be analysed is divided into sterile containers with 50 g of product for each flask. Each container is inoculated with 0.5 mL of inoculum (10^8 cfu/mL). The target concentration is 10^6 cfu/mL, approximately. All the containers are kept at a temperature between 20-25° C. and are protected from light.
(§3) The level of the microbial contamination is checked at 0 hours, 7 days, 14 days and 28 days. The number of colonies is evaluated by dilution in buffer peptone with the appropriate neutraliser agent of the preservative. The culture media used for counting the microorganisms are: Soya triptone (35-37° C., 48 hours) for the determination of bacteria; Sabouraud agar with chloramphenicol for fungi and yeast (25° C., 3-5 days).
(§4) According to Antimicrobial Effectiveness Testing USP 24th Edition, 1999 (pp. 1809-1811), an antimicrobial preservative is considered to be effective in topically used products made with aqueous bases or vehicles, non-sterile nasal products and emulsions, including those applied to mucous membranes, if: • Not less than 2.0 logarithm reduction from the initial calculated bacteria's count is reached at 14 days and no increase from the 14 days' count at 28 days is detected; and • No increase from the initial calculated count of yeast and moulds is observed.

inoculum mixture = assay: preservative efficacy (Antimicrobial Effectiveness Testing USP 24th Edition), 28 days' check; type: cell-based; settings: 0.20 g of LAE
Description: as §1, §2, §3, §4

CCCCCCCCCCCC(=O)N[C@@H](CCCN=C(N)N)C(=O)OCC.Cl [LAE, ethyl ester of the lauramide of the arginine monohydrochloride]
M.I.C. [1]: 64 ppm | M.I.C. [2]: 16 ppm | M.I.C. [3]: 32 ppm | M.I.C. [4]: 128 ppm | M.I.C. [5]: 64 ppm | M.I.C. [6]: 128 ppm | M.I.C. [7]: 64 ppm | M.I.C. [8]: 32 ppm | M.I.C. [9]: 32 ppm | M.I.C. (Escherichia coli 0157H7): 20 ppm | M.I.C. [10]: 64 ppm | M.I.C. [11]: 32 ppm | M.I.C. [12]: 128 ppm | M.I.C. [13]: 16 ppm | M.I.C. [14]: 16 ppm | M.I.C. [15]: 32 ppm | viable count With LAE (Yeast; Example 1, oil-in-water emulsion with non-ionic surfactant, 7 days): 9.5 · 10^2 cfu/mL | viable count With LAE (Yeast; Example 1, oil-in-water emulsion with non-ionic surfactant, 14 days): 4.0 · 10^2 cfu/mL | viable count With LAE (Yeast; Example 1, oil-in-water emulsion with non-ionic surfactant, Initial): 5.6 · 10^5 cfu/mL | viable count With LAE (Yeast; Example 2, oil-in-water emulsion with an ionic emulsifier, 7 days): 1.0 · 10^2 cfu/mL | viable count With LAE (Yeast; Example 2, oil-in-water emulsion with an ionic emulsifier, 14 days): 1.0 · 10^2 cfu/mL | viable count With LAE (Yeast; Example 2, oil-in-water emulsion with an ionic emulsifier, Initial): 3.6 · 10^4 cfu/mL | viable count With LAE (Yeast; Example 3, water in oil emulsion with non-ionic emulsifiers, 7 days): <9.9 · 10^1 cfu/mL | viable count With LAE (Yeast; Example 3, water in oil emulsion with non-ionic emulsifiers, 14 days): <9.9 · 10^1 cfu/mL | viable count With LAE (Yeast; Example 3, water in oil emulsion with non-ionic emulsifiers, Initial): 7.0 · 10^4 cfu/mL | viable count With LAE (Yeast; Example 4, aqueous solution with a surfactants' mixture (bath gels, disodium cocoamfoacetate), 7 days): <9.9 · 10^1 cfu/mL | viable count With LAE (Yeast; Example 4, aqueous solution with a surfactants' mixture (bath gels, disodium cocoamfoacetate), 14 days): <9.9 · 10^1 cfu/mL | viable count With LAE (Yeast; Example 4, aqueous solution with a surfactants' mixture (bath gels, disodium cocoamfoacetate), Initial): 4.6 · 10^4 cfu/mL | viable count With LAE (Yeast; Example 5, aqueous solution with a surfactants' mixture (bath gels, disodium lauryl sulfosuccinate), 7 days): <9.9 · 10^1 cfu/mL | viable count With LAE (Yeast; Example 5, aqueous solution with a surfactants' mixture (bath gels, disodium lauryl sulfosuccinate), 14 days): <9.9 · 10^1 cfu/mL | viable count With LAE (Yeast; Example 5, aqueous solution with a surfactants' mixture (bath gels, disodium lauryl sulfosuccinate), Initial): 3.6 · 10^4 cfu/mL | viable count With LAE (Yeast; Example 6, hydroalcoholic gel (after-shaving lotions), 7 days): 1.6 · 10^2 cfu/mL | viable count With LAE (Yeast; Example 6, hydroalcoholic gel (after-shaving lotions), 14 days): <9.9 · 10^1 cfu/mL | viable count With LAE (Yeast; Example 6, hydroalcoholic gel (after-shaving lotions), Initial): 4.2 · 10^4 cfu/mL | viable count With LAE (Yeast; Example 7, facial tonic, 7 days): 1.1 · 10^2 cfu/mL | viable count With LAE (Yeast; Example 7, facial tonic, 14 days): <9.9 · 10^1 cfu/mL | viable count With LAE (Yeast; Example 7, facial tonic, Initial): 1.2 · 10^4 cfu/mL | viable count With LAE (Yeast; Example 8, mask-up cleaner, 7 days): 1.8 · 10^2 cfu/mL | viable count With LAE (Yeast; Example 8, mask-up cleaner, 14 days): <9.9 · 10^1 cfu/mL | viable count With LAE (Yeast; Example 8, mask-up cleaner, Initial): 7.2 · 10^4 cfu/mL | viable count With LAE (Yeast; Example 9, fluid oil-in-water emulsion with non-ionic surfactants (body oil), 7 days): 2.3 · 10^2 cfu/mL | viable count With LAE (Yeast; Example 9, fluid oil-in-water emulsion with non-ionic surfactants (body oil), 14 days): <9.9 · 10^1 cfu/mL | viable count With LAE (Yeast; Example 9, fluid oil-in-water emulsion with non-ionic surfactants (body oil), Initial): 7.2 · 10^4 cfu/mL | viable count With LAE (Yeast; Example 10, toothpaste formulation, 7 days): 1.2 · 10^2 cfu/mL | viable count With LAE (Yeast; Example 10, toothpaste formulation, 14 days): <9.9 · 10^1 cfu/mL | viable count With LAE (Yeast; Example 10, toothpaste formulation, Initial): 4.2 · 10^4 cfu/mL | viable count With LAE (Yeast; Example 11, aqueous solution with surfactants (shampoos), 7 days): 1.2 · 10^2 cfu/mL | viable count With LAE (Yeast; Example 11, aqueous solution with surfactants (shampoos), 14 days): <9.9 · 10^1 cfu/mL | viable count With LAE (Yeast; Example 11, aqueous solution with surfactants (shampoos), Initial): 4.2 · 10^4 cfu/mL | viable count With LAE (Yeast; Example 12, oil-in-water emulsion with non-ionic surfactants (face cream), 7 days): 9.2 · 10^2 cfu/mL | viable count With LAE (Yeast; Example 12, oil-in-water emulsion with non-ionic surfactants (face cream), 14 days): <9.9 · 10^1 cfu/mL | viable count With LAE (Yeast; Example 12, oil-in-water emulsion with non-ionic surfactants (face cream), Initial): 3.2 · 10^4 cfu/mL | viable count With LAE (Yeast; Example 13, oil-in-water emulsion with non-ionic surfactants (sun protector, polysorbate 60), 7 days): 4.2 · 10^2 cfu/mL | viable count With LAE (Yeast; Example 13, oil-in-water emulsion with non-ionic surfactants (sun protector, polysorbate 60), 14 days): <9.9 · 10^1 cfu/mL | viable count With LAE (Yeast; Example 13, oil-in-water emulsion with non-ionic surfactants (sun protector, polysorbate 60), Initial): 3.8 · 10^4 cfu/mL | viable count With LAE (Yeast; Example 14, oil-in-water emulsion with non-ionic surfactants (sun protector, cetyl dimethicone copolyol), 7 days): 4.5 · 10^2 cfu/mL | viable count With LAE (Yeast; Example 14, oil-in-water emulsion with non-ionic surfactants (sun protector, cetyl dimethicone copolyol), 14 days): <9.9 · 10^1 cfu/mL | viable count With LAE (Yeast; Example 14, oil-in-water emulsion with non-ionic surfactants (sun protector, cetyl dimethicone copolyol), Initial): 7.9 · 10^4 cfu/mL | viable count With LAE (Yeast; Example 15, emulsion for hands care, 7 days): 7.2 · 10^2 cfu/mL | viable count With LAE (Yeast; Example 15, emulsion for hands care, 14 days): <9.9 · 10^1 cfu/mL | viable count With LAE (Yeast; Example 15, emulsion for hands care, Initial): 8.6 · 10^4 cfu/mL | count at 28 days against the 14 days' count (inoculum mixture; Example 1, oil-in-water emulsion with non-ionic surfactant): no increase | count at 28 days against the 14 days' count (inoculum mixture; Example 2, oil-in-water emulsion with an ionic emulsifier): no increase | count at 28 days against the 14 days' count (inoculum mixture; Example 3, water in oil emulsion with non-ionic emulsifiers): no increase | count at 28 days against the 14 days' count (inoculum mixture; Example 4, aqueous solution with a surfactants' mixture (bath gels, disodium cocoamfoacetate)): no increase | count at 28 days against the 14 days' count (inoculum mixture; Example 5, aqueous solution with a surfactants' mixture (bath gels, disodium lauryl sulfosuccinate)): no increase | count at 28 days against the 14 days' count (inoculum mixture; Example 6, hydroalcoholic gel (after-shaving lotions)): no increase | count at 28 days against the 14 days' count (inoculum mixture; Example 7, facial tonic): no increase | count at 28 days against the 14 days' count (inoculum mixture; Example 8, mask-up cleaner): no increase | count at 28 days against the 14 days' count (inoculum mixture; Example 9, fluid oil-in-water emulsion with non-ionic surfactants (body oil)): no increase | count at 28 days against the 14 days' count (inoculum mixture; Example 10, toothpaste formulation): no increase | count at 28 days against the 14 days' count (inoculum mixture; Example 11, aqueous solution with surfactants (shampoos)): no increase | count at 28 days against the 14 days' count (inoculum mixture; Example 12, oil-in-water emulsion with non-ionic surfactants (face cream)): no increase | count at 28 days against the 14 days' count (inoculum mixture; Example 13, oil-in-water emulsion with non-ionic surfactants (sun protector, polysorbate 60)): no increase | count at 28 days against the 14 days' count (inoculum mixture; Example 14, oil-in-water emulsion with non-ionic surfactants (sun protector, cetyl dimethicone copolyol)): no increase | count at 28 days against the 14 days' count (inoculum mixture; Example 15, emulsion for hands care): no increase

From patent publication US8388986B2, “Use of cationic surfactants in cosmetic preparations” (priority 2001, dated 2013)
